# In PubChem BioAssay AID256 (DTP/NCI, 2004):
# Where “and” joins values, the source holds several entries; their conditions need not be identical. Equal values may be shown once. Toxic doses and inconclusive results are not listed.
# System: CD2F1 mice, L1210 leukemia ip, survival T/C
# Assay: NCI In Vivo Anticancer Drug Screen. Data for tumor model L1210 Leukemia (intraperitoneal) in CD2F1 (CDF1) mice
# Conditions: endpoint: mean survival time, higher = longer survival
# Procedure, shortened: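 Implant tumor; dose compound or vehicle; measure endpoint in both groups; report treated divided by control.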
# [1] = dose: 50.0 mg/kg/injection, schedule: Q01DX009 (ip), vehicle: saline with Tween-80
# [2] = dose: 100.0 mg/kg/injection, schedule: Q01DX009 (ip), vehicle: saline with Tween-80
# [3] = dose: 100.0 mg/kg/injection, schedule: Q04DX003 (ip), vehicle: saline with Tween-80
# [4] = dose: 200.0 mg/kg/injection, schedule: Q01DX009 (ip), vehicle: saline with Tween-80
# [5] = dose: 200.0 mg/kg/injection, schedule: Q04DX003 (ip), vehicle: saline with Tween-80
# [6] = dose: 400.0 mg/kg/injection, schedule: Q04DX003 (ip), vehicle: saline with Tween-80
# [7] = dose: 100.0 mg/kg/injection, schedule: Q01DX001 (ip), vehicle: saline with Tween-80
# [8] = dose: 200.0 mg/kg/injection, schedule: Q01DX001 (ip), vehicle: saline with Tween-80
# [9] = dose: 400.0 mg/kg/injection, schedule: Q01DX001 (ip), vehicle: saline with Tween-80
smiles,measurement,setting,value
Cc1ccc(NC(=O)c2cccc(C(=O)Nc3ccc(C)cc3C)c2)c(C)c1,T/C,"dose: 12.5 mg/kg/injection, schedule: Q01DX009 (ip), vehicle: saline with Tween-80",94 % of control
same,T/C,"dose: 25.0 mg/kg/injection, schedule: Q01DX009 (ip), vehicle: saline with Tween-80",90 % of control
same,T/C,[1],89 % of control
CC1(CBr)Oc2ccccc2O1,T/C,"dose: 100.0 mg/kg/injection, schedule: Q04DX003 (ip), vehicle: Klucel (hydroxypropylcellulose) (HPC)",97 % of control
same,T/C,"dose: 200.0 mg/kg/injection, schedule: Q04DX003 (ip), vehicle: Klucel (hydroxypropylcellulose) (HPC)",88 % of control
same,T/C,"dose: 400.0 mg/kg/injection, schedule: Q04DX003 (ip), vehicle: Klucel (hydroxypropylcellulose) (HPC)",94 % of control
N#C/C(N)=C(\C#N)N=C1OCC(O)C(O)C1O (centres undefined),T/C,"dose: 12.5 mg/kg/injection, schedule: Q01DX005 (ip), vehicle: other",102 % of control
same,T/C,"dose: 25.0 mg/kg/injection, schedule: Q01DX005 (ip), vehicle: other",101 % of control
same,T/C,"dose: 50.0 mg/kg/injection, schedule: Q01DX005 (ip), vehicle: other",98 % of control
same,T/C,"dose: 100.0 mg/kg/injection, schedule: Q01DX005 (ip), vehicle: other",106 % of control
same,T/C,"dose: 200.0 mg/kg/injection, schedule: Q01DX005 (ip), vehicle: other",112 % of control
COc1ccccc1-n1c(O)c(N=Nc2ccccc2)c(=O)n(-c2ccccc2)c1=S,T/C,"dose: 100.0 mg/kg/injection, schedule: Q04DX003 (ip), vehicle: acetone",90 % of control
CCCCCCCC(=O)Nc1ccccc1F,T/C,"dose: 100.0 mg/kg/injection, schedule: Q04DX003 (ip), vehicle: saline",103 % of control
same,T/C,"dose: 200.0 mg/kg/injection, schedule: Q04DX003 (ip), vehicle: saline",103 % of control
same,T/C,"dose: 400.0 mg/kg/injection, schedule: Q04DX003 (ip), vehicle: saline",95 % of control
O=C1c2ccccc2C(=O)c2c(Cl)cccc21,T/C,[2],88 % of control
same,T/C,[3],93 % of control
same,T/C,[4],86 % of control
same,T/C,[5],93 % of control
same,T/C,"dose: 400.0 mg/kg/injection, schedule: Q01DX009 (ip), vehicle: saline with Tween-80",90 % of control
same,T/C,[6],91 % of control
O=S1(=O)OCCCC1=C(c1ccccc1)c1ccccc1,T/C,"dose: 75.0 mg/kg/injection, schedule: Q01DX009 (ip), vehicle: saline",102 % of control
same,T/C,"dose: 75.0 mg/kg/injection, schedule: Q04DX003 (ip), vehicle: saline",101 % of control
same,T/C,"dose: 150.0 mg/kg/injection, schedule: Q01DX009 (ip), vehicle: saline",97 % of control
same,T/C,"dose: 150.0 mg/kg/injection, schedule: Q04DX003 (ip), vehicle: saline",94 % of control
same,T/C,"dose: 300.0 mg/kg/injection, schedule: Q01DX009 (ip), vehicle: saline",97 % of control
same,T/C,"dose: 300.0 mg/kg/injection, schedule: Q04DX003 (ip), vehicle: saline",97 % of control
COC1OC2COc3ccccc3OC2C(N)C1SSC1C(OC)OC2COc3ccccc3OC2C1N (centres undefined),T/C,"dose: 75.0 mg/kg/injection, schedule: Q01DX001 (ip), vehicle: saline with Tween-80",94 % of control
same,T/C,"dose: 150.0 mg/kg/injection, schedule: Q01DX001 (ip), vehicle: saline with Tween-80",95 % of control
same,T/C,"dose: 300.0 mg/kg/injection, schedule: Q01DX001 (ip), vehicle: saline with Tween-80",94 % of control
[CH3][Sb]([CH3])([CH3])([O]C(=O)CC#N)[O]C(=O)CC#N,T/C,[3],92 % of control
same,T/C,[5],92 % of control
same,T/C,[6],97 % of control
O=C(O)c1ccccc1CCl,T/C,[3],103 % of control
same,T/C,[5],108 % of control
same,T/C,[6],108 % of control
CC(=O)C1CCC2C3CC=C4CC(OC(=O)CCC(C)C)CCC4(C)C3CCC12C (centres undefined),T/C,[3],95 % of control
same,T/C,[5],95 % of control
same,T/C,[6],92 % of control
[N-]=[N+]=CC(=O)NCC(=O)NCCNCCO,T/C,"dose: 400.0 mg/kg/injection, schedule: Q01DX009 (ip), vehicle: other",156 % of control
same,T/C,"dose: 600.0 mg/kg/injection, schedule: Q01DX009 (ip), vehicle: other",164 % of control
same,T/C,"dose: 800.0 mg/kg/injection, schedule: Q01DX009 (ip), vehicle: other",155 % of control
CC(=O)C1C(c2ccccc2)=C(c2ccccc2)c2ccccc21 (centres undefined),T/C,[7],88 % of control
same,T/C,[8],92 % of control
same,T/C,[9],92 % of control
O=C1c2cc(Cl)ccc2-c2c(Cl)cc(Cl)cc21,T/C,[1],92 % of control
same,T/C,[2],101 % of control
same,T/C,[4],89 % of control
O=C1CC2(C(=O)N1CN1CCCCC1)c1ccccc1-c1ccccc12,T/C,"dose: 12.5 mg/kg/injection, schedule: Q01DX009 (ip), vehicle: Klucel (hydroxypropylcellulose) (HPC)",94 % of control and 102 % of control
same,T/C,"dose: 25.0 mg/kg/injection, schedule: Q01DX009 (ip), vehicle: Klucel (hydroxypropylcellulose) (HPC)",91 % of control and 105 % of control
same,T/C,"dose: 50.0 mg/kg/injection, schedule: Q01DX009 (ip), vehicle: Klucel (hydroxypropylcellulose) (HPC)",98 % of control and 100 % of control
same,T/C,"dose: 100.0 mg/kg/injection, schedule: Q01DX009 (ip), vehicle: Klucel (hydroxypropylcellulose) (HPC)",94 % of control and 102 % of control
same,T/C,"dose: 200.0 mg/kg/injection, schedule: Q01DX009 (ip), vehicle: Klucel (hydroxypropylcellulose) (HPC)",100 % of control
same,T/C,"dose: 400.0 mg/kg/injection, schedule: Q01DX009 (ip), vehicle: Klucel (hydroxypropylcellulose) (HPC)",158 % of control
Cc1cc(C)c(C(=O)CC(C)C)c(C)c1,T/C,"dose: 100.0 mg/kg/injection, schedule: Q01DX001 (ip), vehicle: saline",104 % of control
same,T/C,"dose: 200.0 mg/kg/injection, schedule: Q01DX001 (ip), vehicle: saline",104 % of control
same,T/C,"dose: 400.0 mg/kg/injection, schedule: Q01DX001 (ip), vehicle: saline",104 % of control
CCC[CH2][Sn]([Cl])([CH2]Cl)[CH2]CCC,T/C,"dose: 2.5 mg/kg/injection, schedule: Q04DX003 (ip), vehicle: saline",98 % of control
same,T/C,"dose: 5.0 mg/kg/injection, schedule: Q04DX003 (ip), vehicle: saline",97 % of control
O=S(=O)(c1ccc(N2CCOCC2)cc1)c1ccnc2cc(Cl)ccc12,T/C,[7],93 % of control
same,T/C,[2],89 % of control
same,T/C,[8],101 % of control
same,T/C,[9],87 % of control
CS(=O)(=O)OCCN(CCOS(C)(=O)=O)c1cccc([N+](=O)[O-])c1,T/C,"dose: 8.0 mg/kg/injection, schedule: Q01DX001 (ip), vehicle: saline",96 % of control
same,T/C,"dose: 10.0 mg/kg/injection, schedule: Q01DX010 (ip), vehicle: saline",113 % of control
same,T/C,"dose: 16.0 mg/kg/injection, schedule: Q01DX001 (ip), vehicle: saline",103 % of control
same,T/C,"dose: 32.0 mg/kg/injection, schedule: Q01DX001 (ip), vehicle: saline",110 % of control
same,T/C,"dose: 64.0 mg/kg/injection, schedule: Q01DX001 (ip), vehicle: saline",114 % of control and 108 % of control
same,T/C,"dose: 128.0 mg/kg/injection, schedule: Q01DX001 (ip), vehicle: saline",118 % of control
same,T/C,"dose: 256.0 mg/kg/injection, schedule: Q01DX001 (ip), vehicle: saline",119 % of control
same,T/C,"dose: 300.0 mg/kg/injection, schedule: Q01DX010 (ip), vehicle: saline",97 % of control
O=C(O)C(CSC(c1ccccc1)(c1ccccc1)c1ccccc1)N=Cc1cccs1 (centres undefined),T/C,"dose: 12.5 mg/kg/injection, schedule: Q01DX009 (ip), vehicle: saline",109 % of control
same,T/C,"dose: 12.5 mg/kg/injection, schedule: Q01DX009 (ip), vehicle: suspension in saline",113 % of control
same,T/C,"dose: 25.0 mg/kg/injection, schedule: Q01DX009 (ip), vehicle: suspension in saline",111 % of control
same,T/C,"dose: 66.0 mg/kg/injection, schedule: Q01DX009 (ip), vehicle: saline",163 % of control
same,T/C,[2],172 % of control
same,T/C,"dose: 100.0 mg/kg/injection, schedule: Q01DX009 (ip), vehicle: saline",163 % of control
same,T/C,"dose: 100.0 mg/kg/injection, schedule: Q01DX009 (ip), vehicle: suspension in saline",173 % of control
same,T/C,[4],118 % of control
same,T/C,"dose: 200.0 mg/kg/injection, schedule: Q01DX009 (ip), vehicle: saline",90 % of control
same,T/C,"dose: 200.0 mg/kg/injection, schedule: Q01DX009 (ip), vehicle: suspension in saline",94 % of control
CC1(C)CC=C(c2ccccc2)OC1c1ccccc1 (centres undefined),T/C,"dose: 100.0 mg/kg/injection, schedule: Q04DX002 (ip), vehicle: other",98 % of control
same,T/C,"dose: 200.0 mg/kg/injection, schedule: Q04DX002 (ip), vehicle: other",94 % of control
same,T/C,"dose: 400.0 mg/kg/injection, schedule: Q04DX002 (ip), vehicle: other",102 % of control
